# Measurements reported in patent US12285393B2, “Roles of modulators of intersectin-Cdc42 signaling in Alzheimer's disease” (priority 2017, dated 2025).
# What was measured:
# Rac1 = target: T1, Rac1 (Homo sapiens, UniProt P63000); assay: Rho-GEF IC50 assay (GEF/DH domain-mediated mant-GTP binding); assay type: biochemical
# T1 construct: purchased Cytoskeleton Inc
# Protocol: (§1) Rho-GEF IC50 Assay: Rho-GEF assay (Cytoskeleton Inc., Denver, Colorado, United States of America) was conducted per manufacturer's instructions (λex=360 nm, λem=460 nm). Briefly, a solution (50 μL) of purified Rho GTPase (1 μM) and mant-GTP (1.5 μM) with or without compound (0.001-500 μM) was prepared and the absorbance monitored for 10-30 min to obtain the background/baseline. The addition of purified GEF/DH domain (0.08-0.2 μM) was carried out simultaneously and the absorbance was recorded for 30-45 min. The linear slope following the addition of the GEF was calculated and expressed as percentage of the control and plotted on an IC50 curve.
# RhoA = target: T2, RhoA (Homo sapiens, UniProt P61586); assay: as above; assay type: biochemical
# T2 construct: purchased Cytoskeleton Inc
# T2 sequence (P61586 whole entry): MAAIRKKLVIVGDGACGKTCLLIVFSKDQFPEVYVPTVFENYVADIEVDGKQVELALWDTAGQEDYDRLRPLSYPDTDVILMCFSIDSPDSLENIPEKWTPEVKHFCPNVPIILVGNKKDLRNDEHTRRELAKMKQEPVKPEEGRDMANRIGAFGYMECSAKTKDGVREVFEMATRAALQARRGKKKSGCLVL
# Protocol: as §1
# [1] = Solubility profile by optical density; assay type: physicochemical; settings: for solubility: in DM19
# Text: ZCL278, ZCL279, and ZCL367 were all tested for solubility in the 5 FDA approved solvents to be used in humans. […] Results are shown below in Tables 2-4. Ratio refers to the optical density of the solution comprising the modulator compound/the optical density of the carder/solvent alone.
# C57BL/6 mice = assay: Toxicity experiment, I.P. injection; assay type: in vivo; settings: 5 minutes to 24 hours
# Protocol: (§2) ZCL 278 Toxicity Experiment: Individual C57BL/6 mice of 4-6 months of age from Jackson Laboratory (Bar Harbor, Maine, United States of America) were submitted to ZCL278 treatment for 5 minutes, 30 minutes, 2 hours and 24 hours. The dosage of ZCL278 for each mouse was 0.8 mg/g body weight delivered via intraperitoneal (I.P.) injection of a 15 mg/ml solution of ZCL278 was dissolved in the sesame oil (10% DMSO).
# as §2, with “279” for “278”, “ZCL279” for “ZCL278”, “0.6” for “0.8”
# ZCL367 Toxicity Experiment: Individual C57BL/6 mice of 4-6 months of age from Jackson Laboratory (Bar Harbor, Maine, United States of America) were submitted to ZCL367 treatment for 1 hour or 2 weeks. The dosage of ZCL367 for each time period was 0.4 mg/g body weight or 0.8 mg/g body weight, delivered via I.P. injection. […] Mice were sacrificed after end of 1 hour or 2 weeks.
# amyloid deposits = assay: Amyloid deposition in the hippocampus (antibody 4G8 immunostaining); assay type: in vivo, mice; settings: for amyloid deposits in the hippocampus: 3×Tg AD mice (untreated: average of 4); for amyloid deposition in the hippocampus: WT mice
# Protocol: (§3) Tissue preparation: Mice were deeply anesthetized with 3% isoflourane vapor and euthanized by cervical dislocation. Brain tissues were harvested, and then either snap frozen for Western Blot analysis or fixed in 4% paraformaldehyde overnight for immunohistochemistry (IHC) analysis. Fixed brain tissues were washed with phosphate-buffered saline (PBS) and moved to cryoprotectant (30% sucrose in PBS) at 4° C. Once sunk in the cryoprotectant, brain tissues were subsequently embedded in the optimal cutting temperature compound (O.C.T) and rapidly frozen with chilled isopentane. Then, 8˜30 μm thickness of cryostate section was applied to brain tissues, 30 μm sections were immersed in the PBS and store at 4° C. refrigerator, and 8 μm sections were store at −80° C. refrigerator.
# (§4) Immunohistochemistry analysis: All sections were first treated with 1% H2O2 in PBS for 20 minutes at room temperature, then incubated with 0.5% Triton X-100 for 30 minutes and blocked for 30 minutes at room temperature. Brain tissues were incubated with primary antibodies from Table 6, below. […] All sections were eventually dehydrated in 95% ethanol and mounted on coverslips for light microscopy (Carl Zeiss, Thornwood, New York, United States of America).
# (§5) Methods: Brain tissues collected from each treatment group of mice from the behavior studies were subjected to pathological analysis (e.g., immunohistochemical analysis, as described above in Example 5). […] Growth cone dynamics and spine motility were either recorded with time-lapse microscopy or stained by using the fluorescein isothiocyanate (FITC) or Cyanine Dye 3 (Cy3)-conjugated Phalloidin.
# microglia = assay: Pro-inflammatory microglia in the hippocampus (Iba-1); assay type: in vivo; settings: WT mice; 20× objective lens
# Protocol: as §3, §4, §5
# Cdc42 = Cdc42 (Homo sapiens, UniProt P60953); assay: mant-GTP binding to Cdc42 with or without GEF/DH domain; assay type: biochemical; set-up: purchased Cytoskeleton Inc; settings: 5-500 μM
# Chain of Cdc42 (P60953 whole entry, the tested form may be a part): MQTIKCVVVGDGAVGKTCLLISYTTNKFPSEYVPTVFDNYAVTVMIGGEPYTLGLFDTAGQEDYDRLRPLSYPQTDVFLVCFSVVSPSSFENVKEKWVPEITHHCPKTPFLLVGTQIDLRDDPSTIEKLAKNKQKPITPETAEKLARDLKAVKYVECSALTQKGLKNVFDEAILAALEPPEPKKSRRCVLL
# Protocol: Cdc42 (1 μM) was incubated with mant-GTP (1.5 μM) and varying concentrations of ZCL278, ZCL279, or ZCL367 (5-500 μM). Fluorescent readings were taken every minute for 10 m to acquire the baseline. The GEF/DH domain (0.08-0.2 μM) was added followed by readings taken every minute for another 30 m. The linear phase was calculated from within the time period of 12-22 m. Cdc42 (1 μM) was incubated with mant-GTP (1.5 μM) and varying concentrations of ZCL278, ZCL279, or ZCL367 (5-500 μM). Fluorescent readings were taken every minute for 30 m to monitor the binding of mant-GTP in the absence of GEF/DH domain.
# [2] = Dimethyl Sulfoxide (DMSO), RT-3 h
# [3] = Polyethylene Glycol300 (PEG-300), 30%, RT-3 h
# [4] = 1,2-Propanediol, 40%, 37° C., 1 hour
# [5] = Dimethyl Sulfoxide (DMSO), 37° C., 1 hour
# [6] = Pluronic F-68, 10%, 37° C., 1 hour
# [7] = Polyethylene Glycol300 (PEG-300), 30%, 37° C., 1 hour
structure (smiles),measurement,setting,value
"Cc1cc(C)nc(NS(=O)(=O)c2ccc(NC(=S)NC(=O)COc3ccc(Br)cc3Cl)cc2)n1 [ZCL278, 4-(3-(2-(4-bromo-2-chloro-phenoxy)-acetyl)-thioureido)-N-(4,6-dimethylpyrimidin-2-yl)-benzenesulfonamide]",IC50,Rac1,≥ 500 µM
same,IC50,RhoA,≥ 500 µM
same,Ratio (optical density solution/solvent alone),"[1]; 1,2-Propanediol, 40%, RT-3 h",3.154
same,optical density of solution,"[1]; 1,2-Propanediol, 40%, RT-3 h",0.123
same,Ratio (optical density solution/solvent alone),[1]; [2],1.119
same,optical density of solution,[1]; [2],0.047
same,Ratio (optical density solution/solvent alone),"[1]; Pluronic F-68, RT-3 h",2.675
same,optical density of solution,"[1]; Pluronic F-68, RT-3 h",0.107
same,Ratio (optical density solution/solvent alone),[1]; [3],2.275
same,optical density of solution,[1]; [3],0.091
same,Ratio (optical density solution/solvent alone),"[1]; Sesame Oil, RT-3 h",1.395
same,optical density of solution,"[1]; Sesame Oil, RT-3 h",0.06
same,Ratio (optical density solution/solvent alone),"[1]; Sterile Water, RT-3 h",2.211
same,optical density of solution,"[1]; Sterile Water, RT-3 h",0.084
same,Ratio (optical density solution/solvent alone),"[1]; Tween 80, 0.4%, RT-3 h",1.725
same,optical density of solution,"[1]; Tween 80, 0.4%, RT-3 h",0.069
same,Ratio (optical density solution/solvent alone),"[1]; dPBS, RT-3 h",1.795
same,optical density of solution,"[1]; dPBS, RT-3 h",0.07
same,solubility,[1],completely soluble
same,"gross anatomic toxicity (plasma, liver, kidney and brain tissues)",C57BL/6 mice; 0.8 mg/g body weight I.P.,no gross anatomic toxicity
same,amyloid deposits in the hippocampus,amyloid deposits,no amyloid deposits
same,amyloid deposition in the hippocampus,amyloid deposits,No amyloid deposition
same,"Average Number of Microglia per Microscope Field, CA1",microglia,12
same,"Average Number of Microglia per Microscope Field, CA2-3",microglia,10
same,"Average Number of Microglia per Microscope Field, DG",microglia,8
same,effect on Cdc42 (mant-GTP binding),Cdc42; in the absence of GEF domain,activates Cdc42
same,effect on Cdc42 (mant-GTP binding),Cdc42; in the presence of GEF domain,acts as an inhibitor
"O=S(=O)(Nc1ccccc1O)c1ccc2oc3ccc(S(=O)(=O)Nc4ccccc4O)cc3c2c1 [ZCL279, N^2,N^8-bis(2-hydroxyphenyl)dibenzo[b,d]furan-2,8-disulfonamide]",Ratio (optical density solution/solvent alone),[1]; [4],2.359
same,optical density of solution,[1]; [4],0.092
same,Ratio (optical density solution/solvent alone),[1]; [5],1.071
same,optical density of solution,[1]; [5],0.045
same,Ratio (optical density solution/solvent alone),[1]; [6],2.667
same,optical density of solution,[1]; [6],0.104
same,Ratio (optical density solution/solvent alone),[1]; [7],3.762
same,optical density of solution,[1]; [7],0.158
same,Ratio (optical density solution/solvent alone),"[1]; Sesame Oil, 37° C., 1 hour",1.872
same,optical density of solution,"[1]; Sesame Oil, 37° C., 1 hour",0.088
same,Ratio (optical density solution/solvent alone),"[1]; Sterile Water, 37° C., 1 hour",6.158
same,optical density of solution,"[1]; Sterile Water, 37° C., 1 hour",0.234
same,Ratio (optical density solution/solvent alone),"[1]; Tween-80, 0.4%, 37° C., 1 hour",3.105
same,optical density of solution,"[1]; Tween-80, 0.4%, 37° C., 1 hour",0.118
same,Ratio (optical density solution/solvent alone),"[1]; dPBS, 37° C., 1 hour",3.846
same,optical density of solution,"[1]; dPBS, 37° C., 1 hour",0.15
same,solubility,[1],completely soluble
same,"gross anatomic toxicity (plasma, liver, kidney and brain tissues)",C57BL/6 mice; 0.6 mg/g body weight I.P.,no gross anatomic toxicity
same,amyloid deposits in the hippocampus,amyloid deposits,no amyloid deposits
same,amyloid deposition in the hippocampus,amyloid deposits,No amyloid deposition
same,"Average Number of Microglia per Microscope Field, CA1",microglia,13
same,"Average Number of Microglia per Microscope Field, CA2-3",microglia,10
same,"Average Number of Microglia per Microscope Field, DG",microglia,4
same,effect on Cdc42 (mant-GTP binding),Cdc42; in the absence of GEF domain,has no effect
same,effect on Cdc42 (mant-GTP binding),Cdc42; in the presence of GEF domain,activates Cdc42
